Results from patent US10588280B2, “Aided delivery of plant treatment agents” (Monsanto Technology LLC, priority 2014, dated 2020).

Tests used:
Format in all cases: in vivo
[1] = test system: haploid maize seedlings (shoot meristem); experiment: Example 1: single unsubmerged centrifugation after colchicine soak, chromosome doubling success; settings: 1250 ppm colchicine 10 min soak, unsubmerged spin 335 g 3 min
Text: Corn seeds of four different maize F1 hybrid-derived haploid induction populations were used in this experiment; two of the populations, Male 1 and Male 2, were derived from two different male inbred lines and the remaining two populations, Female 1 and Female 2, were derived from two different female inbred lines. Seeds of each germplasm were germinated in soil and the subsequent seedlings tended in a greenhouse under standard maize growing conditions until the seedlings reached the V1 to V2 growth stages.
Next, several randomly-selected seedlings of each germplasm were then removed from the soil, washed to remove residual soil and then subjected to a contacting step which included soaking the seedlings for 10 minutes in a liquid doubling agent comprising 1250 ppm colchicine.
After the contacting step, seedlings were bundled in a PCS with wooden rods, similar to that described in FIG. 9. The seedlings and rods were wrapped tightly together with several layers of aluminum foil. Care was taken to wrap the seedlings tightly, but not so tight as to damage the tissues of the seedling. The folds and layers of the wrap were arranged such that any liquid agent still clinging to the surface of the plant would not be trapped inside the wrap during centrifugation.
Once arranged in the centrifuge, seedlings were subjected to an unsubmerged centrifugation at 335 g for 3 min.
After centrifugation, the seedlings were removed from the centrifuge container, rinsed with water to remove any remaining plant treatment agent, and then transplanted into 10-inch pots in a growth room where they were tended under standard maize growing conditions until they grew to maturity and flowered.
Self-pollinations were attempted with each plant that survived the treatment to produce pollen and during the ensuing growth the pollination success, fertilization success and final doubling efficiency were determined within each sample.
Control samples of several randomly-selected seedlings from each germplasm received no exposure to the plant treatment agent, but were otherwise handled identically as their treated counterparts.

[2] = test system: haploid seedlings derived from corn inbred 91DUQ1 or 83IDI1 (SAM); experiment: Example 8: serial centrifugation with colchicine, unsubmerged spin at 340 g to 2000 g; settings: 1250 ppm colchicine, submerged 50 g 3 min
Text: F1 hybrid-derived haploid seedlings derived from either female corn inbred line 91DUQ1 or male corn inbred line 83IDI1 were germinated in soil in a greenhouse in standard maize growing conditions and grown to the V1-V2 growth stage (1 week after planting). Seedlings were then removed from the soil, rinsed to remove residual soil, and partitioned into 5 samples comprising several dozen seedlings each.
This bundled PCS sample was placed into a centrifuge container, roots first. Each plant of the other four samples were individually wrapped to a PCS comprising a rod with a paraffin wrap and placed into a separate centrifuge container, one plant-PCS assembly per container, similar to that shown in FIG. 7.
Once attached to their respective PCSs and placed into their respective centrifuge containers, a solution comprising 1250 ppm colchicine was added to each container until each plant was submerged at least up until the SAM of every plant was submerged. All samples were then centrifuged with the SAMs submerged in treatment solution for 3 min at 50 g.
Following the first centrifugation, the treatment solution was drained from each centrifugation container, and then each sample was subjected to an unsubmerged spin for 3 minutes at one of six different rates, ranging from 340 g to 2000 g, as shown in Table 9.
Following the second centrifugation, the plants were removed from the centrifugation container and rinsed with water to remove any remaining colchicine solution, and then transplanted into 10-inch pots and tended in a growth room under standard maize growing conditions until they grew to maturity and flowered.
Self-pollinations were attempted with each plant that survived the treatment to produce pollen and an ear, and pollination success as determined within each sample.

[3] = test system: haploid corn seedlings (SAM); experiment: Example 2: single submerged centrifugation in colchicine, survival and doubling success; settings: for DE / Fert. Success / Initial Survival / Poll. Success: single submerged spin 50 g 10 min
Text: Seeds of 5 different F1 hybrid-derived haploid commercial corn lines were randomly-selected and germinated in a greenhouse. The resulting seedlings were removed from soil or growth media at the V1-V2 growth stage and the soil or growth media rinsed from the plants with water. One sample of several random seedlings within each haploid line was placed in a centrifuge sample container without regard to how the shoot-root axis of the plants would be orientated with respect to the force of acceleration generated during the planned centrifugation. Next, a plant treatment solution comprising 1000 ppm colchicine was poured into the container such that the solution submerged each plants SAM, and then the sample centrifuged at 50 g for 10 min with the SAMs submerged in the plant treatment agent.
Following centrifugation, the plants were removed, rinsed with water to remove any remaining colchicine solution, and then recovered and tended in a light, humidity, and temperature-controlled greenhouse for several days before being transplanted to a nursery greenhouse.
The control sample received no centrifugation or colchicine exposure, but was otherwise handled identically as the treatment sample. During the subsequent growth of the plants, the initial survival, pollination success, fertilization success, and doubling efficiency (DE) were determined within each sample.

[4] = bundled PCS, unsubmerged 340 g 3 min
[5] = individually-wrapped PCS, unsubmerged 340 g 3 min
[6] = individually-wrapped PCS, unsubmerged 500 g 3 min
[7] = individually-wrapped PCS, unsubmerged 750 g 3 min
[8] = individually-wrapped PCS, unsubmerged 1000 g 3 min
[9] = individually-wrapped PCS, unsubmerged 2000 g 3 min
[10] = Ave: of five lines, 1000 ppm colchicine
[11] = centrifuged samples, 1000 ppm colchicine, submerged 50 g 10 min, vs untreated controls
[12] = line F1004, 1000 ppm colchicine
[13] = line F1045, 1000 ppm colchicine
[14] = line F1095, 1000 ppm colchicine
[15] = line F1118, 1000 ppm colchicine
[16] = line F1900, 1000 ppm colchicine

For `COc1cc2c(c(OC)c1OC)-c1ccc(OC)c(=O)cc1[C@@H](NC(C)=O)CC2` [colchicine], the “DE (doubling efficiency)” value ([1]; Female1) was 42%, the “Fertilization Successes” value ([1]; Female1, 19 plants treated) was 8 and the “Pollination Successes” value ([1]; Female1, 19 plants treated) was 10. The “DE (doubling efficiency)” value ([1]; Female2) was 50%, the “Fertilization Successes” value ([1]; Female2, 8 plants treated) was 4 and the “Pollination Successes” value ([1]; Female2, 8 plants treated) was 6. The “DE (doubling efficiency)” value ([1]; Male1) was 71%, the “Fertilization Successes” value ([1]; Male1, 14 plants treated) was 10 and the “Pollination Successes” value ([1]; Male1, 14 plants treated) was 13. For the same molecule, the “DE (doubling efficiency)” value ([1]; Male2) was 67%, the “Fertilization Successes” value ([1]; Male2, 15 plants treated) was 10 and the “Pollination Successes” value ([1]; Male2, 15 plants treated) was 12. For the same molecule, the DE [2, 4] was 68.9%, the “Fertilization Success” value [2, 4] was 85.0% and the Pollination success [2, 4] was 90.0%. For the same molecule, the “Survival Rate” value [2, 4] was 90.0%, the DE [2, 5] was 89.3% and the “Fertilization Success” value [2, 5] was 96.2%. The Pollination success [2, 5] was 100.0%, the “Survival Rate” value [2, 5] was 92.9% and the DE [2, 6] was 96.4%. For the same molecule, the “Fertilization Success” value [2, 6] was 100.0%, the Pollination success [2, 6] was 100.0% and the “Survival Rate” value [2, 6] was 96.4%. For the same molecule, the DE [2, 7] was 83.3%, the “Fertilization Success” value [2, 7] was 95.2% and the Pollination success [2, 7] was 100.0%. The “Survival Rate” value [2, 7] was 87.5%, the DE [2, 8] was 85.7% and the “Fertilization Success” value [2, 8] was 100.0%. The Pollination success [2, 8] was 92.3%, the “Survival Rate” value [2, 8] was 92.9% and the DE [2, 9] was 63.6%. For the same molecule, the “Fertilization Success” value [2, 9] was 87.5%, the Pollination success [2, 9] was 100.0% and the “Survival Rate” value [2, 9] was 72.7%. For the same molecule, the DE [3, 10] was 30%, the “Fert. Success” value [3, 10] was 84% and the “Initial Survival” value [3, 10] was 77%. The “Poll. Success” value [3, 10] was 47%, the “drop in initial survival as compared to controls” value [3, 11] was 15% and the “improvement of overall average DE as compared to controls” value [3, 11] was 25%. The DE [3, 12] was 50%, the “Fert. Success” value [3, 12] was 100% and the “Initial Survival” value [3, 12] was 100%. For the same molecule, the “Poll. Success” value [3, 12] was 50%, the DE [3, 13] was 25% and the “Fert. Success” value [3, 13] was 100%. The “Initial Survival” value [3, 13] was 58%, the “Poll. Success” value [3, 13] was 43% and the DE [3, 14] was 47%. For the same molecule, the “Fert. Success” value [3, 14] was 78%, the “Initial Survival” value [3, 14] was 87% and the “Poll. Success” value [3, 14] was 69%. The DE [3, 15] was 10%, the “Fert. Success” value [3, 15] was 100% and the “Initial Survival” value [3, 15] was 40%. The “Poll. Success” value [3, 15] was 25%, the DE [3, 16] was 10% and the “Fert. Success” value [3, 16] was 40%. The “Initial Survival” value [3, 16] was 100%, the “Poll. Success” value [3, 16] was 50% and the “individuals that produced pollen and silks” value ([3]; minimum over all five inbred samples receiving the experimental treatment) was “at least 25%”.
